# Data reported in paper PMC3107525 (The Journal of neuroscience : the official journal of the …, 2011).
# Read-outs that look alike come from different tables or passages of the source.
# Tests used:
# NCCc1ccc(O)c(O)c1 = assay: cells, lysate or membranes; details: other: substrate uptake, COS-7, 96 well plates, 10 min, room temperature; pH 7.4
# hSERT Y95F/C109A/I179C = hSERT Y95F/C109A/I179C (Homo sapiens, UniProt P31645, C109A/I179C/Y95F); assay: Uptake with MTSET-sensitive mutant in COS-7 cells; assay type: cell-based
# hSERT Y95F [1] = biological target: T1, hSERT Y95F (Homo sapiens, UniProt P31645, Y95F)
# hSERT WT [2] = biological target: T2, hSERT WT (Homo sapiens, UniProt P31645)
# SERT = SERT (Rattus norvegicus, UniProt P31652); assay type: in vivo; details: exogenously applied, anesthetized rats, mean ± SEM, n = 10
# DAT = DAT (Rattus norvegicus, UniProt P23977); assay type: in vivo; details: 10 mg/kg i.p., dorsal striatum
# hSERT WT [3] = biological target: T2, hSERT WT; remark: listed apart in the source
# hSERT WT [4] = biological target: T2, hSERT WT; details: 20 μM 5HT or 2 mM DA extracellular
# hSERT WT [5] = biological target: T2, hSERT WT; details: gluconate substituted for Cl-
# hSERT D98G = hSERT D98G (Homo sapiens, UniProt P31645, D98G)
# hSERT WT [6] = biological target: T2, hSERT WT; remark: listed apart in the source
# hSERT WT [7] = biological target: T2, hSERT WT; details: 0.2-0.5 nM [125I]RTI-55, 1 hour on ice
# hSERT Y95F [8] = biological target: T1, hSERT Y95F; remark: listed apart in the source
# [9] = read-out: IC50 for inhibition of [3H]5HT uptake
# [10] = read-out: IC50 for inhibition of [3H]DA uptake
# [11] = substrate uptake, COS-7, 96 well plates, 10 min, room temperature
# Chain of SERT (P31652 whole entry): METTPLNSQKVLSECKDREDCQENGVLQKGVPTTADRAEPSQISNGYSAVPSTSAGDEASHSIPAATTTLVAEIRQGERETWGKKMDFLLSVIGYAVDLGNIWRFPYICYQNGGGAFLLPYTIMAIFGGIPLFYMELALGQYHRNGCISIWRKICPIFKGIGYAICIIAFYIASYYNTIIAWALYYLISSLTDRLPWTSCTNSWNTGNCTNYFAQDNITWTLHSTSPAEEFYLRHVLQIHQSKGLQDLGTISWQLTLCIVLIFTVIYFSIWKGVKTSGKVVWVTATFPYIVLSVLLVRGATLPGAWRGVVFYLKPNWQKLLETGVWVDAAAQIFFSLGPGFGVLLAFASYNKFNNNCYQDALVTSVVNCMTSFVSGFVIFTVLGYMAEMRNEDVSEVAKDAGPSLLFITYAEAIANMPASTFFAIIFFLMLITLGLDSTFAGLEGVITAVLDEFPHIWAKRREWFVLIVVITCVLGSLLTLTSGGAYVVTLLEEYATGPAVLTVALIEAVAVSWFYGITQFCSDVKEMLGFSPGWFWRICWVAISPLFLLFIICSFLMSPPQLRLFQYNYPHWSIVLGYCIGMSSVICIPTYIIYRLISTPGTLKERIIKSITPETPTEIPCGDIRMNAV
# Chain of DAT (P23977 whole entry): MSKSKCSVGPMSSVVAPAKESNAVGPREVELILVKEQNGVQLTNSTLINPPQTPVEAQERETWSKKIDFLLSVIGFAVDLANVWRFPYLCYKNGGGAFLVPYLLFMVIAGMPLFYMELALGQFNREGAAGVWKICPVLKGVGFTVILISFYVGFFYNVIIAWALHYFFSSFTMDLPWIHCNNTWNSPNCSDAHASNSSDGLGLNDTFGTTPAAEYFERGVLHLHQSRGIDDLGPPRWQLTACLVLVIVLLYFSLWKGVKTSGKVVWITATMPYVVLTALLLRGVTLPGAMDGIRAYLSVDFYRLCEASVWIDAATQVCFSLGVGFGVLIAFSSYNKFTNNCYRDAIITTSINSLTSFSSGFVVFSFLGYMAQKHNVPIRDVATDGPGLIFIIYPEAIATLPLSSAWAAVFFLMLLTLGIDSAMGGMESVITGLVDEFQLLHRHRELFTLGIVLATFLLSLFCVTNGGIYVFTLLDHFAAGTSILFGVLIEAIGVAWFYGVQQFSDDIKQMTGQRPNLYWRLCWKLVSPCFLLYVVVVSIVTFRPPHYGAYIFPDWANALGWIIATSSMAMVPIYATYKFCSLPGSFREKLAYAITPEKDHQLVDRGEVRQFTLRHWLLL
molecule,measurement,setting,value
hSERT WT (Homo sapiens),Km,NCCc1ccc(O)c(O)c1,78 ± 5.7 µM
"C[N+](C)(C)CCSS(C)(=O)=O [MTSET, [2-(trimethylammonium)ethyl] methane-thiosulfonate]",decrease of 5HT uptake activity,"hSERT Y95F/C109A/I179C; 10 mM MTSET, 10 min",> 90%
"CNC(C)Cc1ccc2c(c1)OCO2 (centres unmarked) [MDMA, 3,4-methylenedioxymethamphetamine]",IC50,hSERT Y95F [1]; [9],3100 ± 430 nM
same,IC50,hSERT Y95F [1]; [10],940 ± 110 nM
same,IC50,hSERT WT [2]; [9],4400 ± 840 nM
same,IC50,hSERT WT [2]; [10],2700 ± 330 nM
"NCCc1c[nH]c2ccc(O)cc12 [5HT, serotonin]",baseline clearance time (T80),SERT,73.4 ± 8.3 s
"CN(C)CCCC1(c2ccc(F)cc2)OCc2cc(C#N)ccc21 (centres unmarked) [Citalopram, citalopram]",effect on DA clearance time (T80),DAT,unaffected
"NCCc1ccc(O)c(O)c1 [DA, dopamine]",Vmax,hSERT WT [3]; [11],2.7 ± 0.65 pmol/well/min
same,Vmax for DA transport relative to Vmax for 5HT transport,hSERT WT [3]; times higher,4–5 times
same,baseline clearance time (T80),SERT,79.5 ± 4.1 s
same,transport of DA,hSERT Y95F/C109A/I179C; before or after MTSET treatment,< 2%
same,efflux of preloaded [3H]5HT,hSERT WT [4],substantial and comparable efflux
same,efflux of preloaded [3H]DA,hSERT WT [4],no significant efflux
same,apparent affinity for Cl- in substrate transport,hSERT WT [5],~ 100 mM
same,DA uptake activity,hSERT D98G,no DA uptake activity
same,mode of inhibition of 5HT uptake,hSERT WT [6],competitive inhibitor
same,relation of 5HT and DA binding sites,hSERT WT [7],mutually exclusive
same,Vmax,hSERT Y95F [8]; [11],2.4 ± 0.52 pmol/well/min
same,Vmax for DA transport relative to Vmax for 5HT transport,hSERT Y95F [8]; times higher,4–5 times
